Measurements from patent US12180252B2, “Peptide derived from PEP27 peptide and uses thereof” (priority 2021, dated 2024).
Values after ≈ are worked out from the molar mass of the structure shown. Values joined by “and” are separate entries in the source; they are usually repeats but may differ in a detail not shown here. Equal values may be shown once. Where a SMILES comes first, the peptide text is derived from it.

How the values were obtained:
[1] = system: E. coli and Staphylococcus aureus cells; assay: Scanning electron microscope analysis of bacterial membrane; format: cell-based, Escherichia coli; conditions: at MIC, 37° C., 1 hour
Procedure: In order to confirm whether the synthetic peptides of the present invention prepared by the method of above 1 would damage the bacterial cell membrane, it was investigated through a scanning electron microscope.
As a control, a strain not treated with peptide was used. After incubation, the cells were recovered, treated with 2.5% glutaraldehyde at 4° C. for 18 hours, and washed twice with PBS buffer solution. The fixed cells were dehydrated for 10 minutes using 100% ethanol and diluted ethanol (50%, 70%, 90% and 100%) in sequential order, and then the samples were dried and coated with platinum, followed by observation through a low vacuum scanning electron microscope.

[2] = system: plasmid DNA (pRSETB); assay: Peptide-DNA binding by agarose gel electrophoresis; conditions: peptide/DNA ratios 0.25:1 to 4:1, 300 ng plasmid DNA
Procedure: Specifically, 300 ng of plasmid DNA (pRSETB) was reacted with the peptide by a relative ratio (reactions were performed at peptide/DNA ratios of DNA alone, 0.25:1, 0.5:1, 1:1, 1.5:1, 2:1, 3:1, 4:1, respectively) at 37° C. for 10 minutes, followed by conducting electrophoresis on a 1% agarose gel, staining the same with ethidium bromide (EtBr) and monitoring through UV.

[3] = system: E. coli ATCC 25922; assay: Cytoplasmic membrane depolarization (DiSC3-5); format: cell-based, Escherichia coli; conditions: 4×MIC
Procedure: We also used E. coli cells and the membrane potential-sensitive cyanine dye 3,3′-dipropylthiadicarbocyanine iodide (DiSC3-5) to test the ability of PEP27 and PEP27-2 to depolarize Gram-negative bacterial membranes (FIG. 15B to FIG. 15E).
Depolarization of the cytoplasmic membrane by the peptides was measured using the membrane potential-sensitive dye DiSC3-5 (Merck KGaA, n=4 per condition) with intact E. coli cells as previously described. 66 Mid-log-phase E. coli ATCC 25922 cells were washed with 5 mM HEPES buffer containing 20 mM glucose and resuspended to an OD600 of 0.05 in 5 mM HEPES buffer containing 20 mM glucose and 0.1 M KCl. The cell suspension was incubated with 1 μM DiSC3-5 for 1 h. […] Fluorescence was measured at excitation and emission wavelengths of 622 and 670 nm, respectively.
When the bacterial cytoplasmic membrane is disrupted, the membrane potential dissipates E. coli, and DiSC3-5 is released into the culture medium, resulting in a fluorescence increase. After stabilization for 10 min by treatment with DiSC3-5, AMPs were added, and the plasma membrane potential of E. coli was confirmed by monitoring the change in fluorescence intensity for another 30 min.

[4] = system: E. coli; assay: Flow cytometry, propidium iodide staining; format: cell-based, Escherichia coli; conditions: E. coli, flow cytometry
Procedure: In order to confirm whether the peptide prepared by the method of above 1 acts on the bacterial membrane, PEP27-2 peptide having better antimicrobial activity than the parental peptide was analyzed through flow cytometry.
Thereafter, the supernatant was removed using a centrifuge (10,000 rpm) and stained with propidium iodide (PI) at a concentration of 10 μg/ml at 4° C. for 30 minutes. Then, the unbound propidium iodide (PI) was removed using the centrifuge, and 1 ml of physiological saline (PBS) was added to remove agglomeration of the cells. Thereafter, effects of the peptide on the bacterial membrane were determined using a Bechman flow cytometer.

[5] = system: S. aureus USA300; assay: microbe, parasite or virus in culture; conditions: S. aureus USA300, antibiotics-tolerant; 37° C., 18 hours
Procedure, shortened: (§1)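 Peptide growth inhibition measured by twofold dilution against mid-log bacteria (2×10^4 cells/100 μl), 37° C, 18 hours; endpoint was absence of cell division. Meropenem, ceftazidime, ceftriaxone and vancomycin were run in parallel.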

[6] = system: S. aureus MW2; assay: microbe, parasite or virus in culture; conditions: S. aureus MW2, antibiotics-tolerant; 37° C., 18 hours
Procedure, shortened: as §1

[7] = system: E. coli ATCC25922; format: cell-based, Escherichia coli; conditions: ATCC25922, 18 h
[8] = system: E. coli CCARM1229; format: cell-based, Escherichia coli; conditions: E. coli CCARM1229, antibiotics-tolerant; 37° C., 18 hours
[9] = system: 11 types of strains (Staphylococcus aureus, Pseudomonas erujinosa); assay: MIC, summary over the strains of Table 7; format: cell-based
Procedure: In order to compare the antimicrobial activity of PEP27-2, which is the peptide having the most excellent antimicrobial activity among the peptides prepared by the method of above 1, with existing antibiotics, MIC concentrations of specific antibiotics were investigated with regard to the same gram-positive bacteria (Staphylococcus aureus) and the same gram-negative bacteria (Pseudomonas erujinosa) stains. Specifically, subject strains were prepared by the method of above 2, and were treated with the antibiotics, that is, meropenem, ceftazidime, ceftriaxone or vancomycin, respectively, followed by determining MICs of the antibiotics.

[10] = system: S. aureus ATCC 25923; assay: Time-kill kinetics; format: cell-based, Staphylococcus aureus; conditions: at MIC, after 20 min of treatment
Procedure: (§2) Time-killing kinetics were analyzed for E. coli ATCC 25922 and S. aureus ATCC 25923 in the presence of PEP27-2 at their respective MICs. The bacterial cells were cultured overnight until they reached the exponential growth phase; they were then incubated at 37° C. for an additional 10 min from 0 min to 1 h. The total bacterial population was then stained with QUANTOM total cell staining dye, after which the stained cells were mixed with QUANTOM cell loading buffer and loaded into QUANTOM M50 Slides. The slides were centrifuged using the QUANTOM centrifuge to evenly distribute them throughout the counting chamber and ensure accurate cell counts. Intracellular fluorescence was detected using the QUANTOM Tx microbial cell counter, which captures and counts cells automatically (Logos Biosystems, Gyeonggi-do, South Korea).

[11] = system: E. coli ATCC 25922; assay: Time-kill kinetics; format: cell-based, Escherichia coli; conditions: at MIC, after 20 min of treatment
Procedure: as §2

Row | SMILES | bacterial cell membrane damage by SEM [1] | binding to DNA (gel electrophoresis) [2] | DiSC3-5 fluorescence intensity (membrane depolarization) [3] | bacterial membrane destruction [4] | Minimal inhibitory concentration [5] | Minimal inhibitory concentration [6] | Minimal inhibitory concentration [7] | Minimal inhibitory concentration [8] | MIC range over the strains of Table 7 [9] | decrease in S. aureus cell viability [10] | decrease in E. coli cell viability [11]
1 | CC[C@H](C)[C@H](NC(=O)CN)C(=O)NCC(=O)N[C@@H](C)C(=O)N[C@H](C(=O)N[C@@H](CC(C)C)C(=O)N[C@@H](CCCCN)C(=O)N[C@H](C(=O)N[C@@H](CC(C)C)C(=O)N[C@H](C(=O)N[C@H](C(=O)NCC(=O)N[C@@H](CC(C)C)C(=O)N1CCC[C@H]1C(=O)N[C@@H](C)C(=O)N[C@@H](CC(C)C)C(=O)N[C@H](C(=O)N[C@@H](CO)C(=O)N[C@@H](Cc1c[nH]c2ccccc12)C(=O)N[C@H](C(=O)N[C@@H](CCCCN)C(=O)N[C@@H](CCCNC(=N)N)C(=O)N[C@@H](CCCCN)C(=O)N[C@@H](CCCNC(=N)N)C(=O)N[C@@H](CCC(N)=O)C(=O)N[C@@H](CCC(N)=O)C(N)=O)[C@@H](C)CC)[C@@H](C)CC)[C@@H](C)O)[C@@H](C)O)C(C)C)C(C)C [Melittin, reference compound] | significant membrane damage | not bound to any DNA | ~140 | found to have cell membrane destruction ability | – | – | – | – | – | – | –
2 | CSCC[C@H](N)C(=O)N[C@@H](Cc1c[nH]c2ccccc12)C(=O)N[C@@H](CCCCN)C(=O)N[C@@H](Cc1c[nH]c2ccccc12)C(=O)N[C@@H](Cc1ccccc1)C(=O)N[C@@H](Cc1c[nH]cn1)C(=O)N[C@@H](CC(N)=O)C(=O)N[C@H](C(=O)N[C@@H](CC(C)C)C(=O)N[C@@H](CO)C(=O)N[C@@H](Cc1c[nH]c2ccccc12)C(=O)NCC(=O)N[C@@H](Cc1c[nH]c2ccccc12)C(=O)N[C@@H](CC(C)C)C(=O)N[C@@H](CC(C)C)C(=O)N[C@@H](C)C(=O)N[C@@H](CC(=O)O)C(=O)N[C@@H](CCCCN)C(=O)N[C@@H](CCCNC(=N)N)C(=O)N1CCC[C@H]1C(=O)N[C@@H](C)C(=O)N[C@@H](CCCNC(=N)N)C(=O)N[C@@H](CC(=O)O)C(=O)N[C@@H](Cc1ccc(O)cc1)C(=O)N[C@@H](CC(N)=O)C(=O)N[C@@H](CCCNC(=N)N)C(=O)N[C@@H](CCCCN)C(N)=O)C(C)C [PEP27-2] (H-MWKWFHNVLSWGWLLADKRPARDYNRK-NH2) | – | – | – | – | 2 µM (≈ 6.95 µg/mL) | 3 µM and 4 µM | 4 µM (≈ 13.9 µg/mL) | 4 µM (≈ 13.9 µg/mL) | 2 to 4 µM | 97.48% | 98.63%
